Consider five compounds from patent US20250282723A1, “AMYLOID TARGETING AGENTS AND METHODS OF USING THE SAME” (The Regents of the University of California, priority 2021, published 2025).

Several values for one entry are separate records, joined by “and”; a condition that tells them apart may be missing. Identical values can stand only once.

The nature of series [1]: Quantum yield measurements. Particulars: 5% DMSO/H2O, reference standard Coumarin 30. Format: physicochemical. As to the method:
Quantum Yield Measurements. To determine the quantum yield (QY) of compounds ARCAM, 1-5, a procedure that was similar to a previously reported protocol for estimating the QY for Thioflavin T^24 was used. Briefly, the absorbance spectrum of each probe (in 5% Dimethyl Sulfoxide (DMSO)/water (H2O)), in addition to the absorbance spectrum for the reference standard (Coumarin 30, QY=0.67)^27 was measured. The wavelength at which the two normalized absorbance curves intersected was used as the excitation wavelength. A serial dilution of each probe and the standard was made with absorbance values at the excitation wavelength in the range of 0 to 0.1 absorbance units. At each concentration, the emission spectra for each probe and the standard were measured. Technical triplicates of these experiments were performed for all probes, and the averages were recorded. From these emission spectra, the area under the curve was calculated and plotted against the absorbance at each concentration (FIGS. 3-7). The data were fitted to Equation 1 to obtain estimates for QY: […]
where QY represents the quantum yield, A represents the absorbance, E represents the integrated fluorescence emission, η represents the refractive index of the solvent^28,29, and the ‘p’ and ‘r’ subscripts signify the probe or the reference compound, respectively.
Quantum Yield ((D) for each probe was measured as described previously.^31 Briefly, we measured the absorbance spectrum of each probe in 5% DMSO/H2O, as well as the absorbance spectrum for the reference standard (Coumarin 30, =0.67 in Acetonitrile). Both normalized absorbance curves were plotted, and the wavelength of intersection was used as the excitation wavelength. A serial dilution was made for each probe and the standard with absorbance values at the excitation wavelength varying between of 0 to 0.1 absorbance units. At each concentration, the emission spectra for each probe and the standard were measured. Each experiment was repeated in technical triplicates for all probes, and the averages were recorded. The integrated fluorescence emission was calculated and plotted against the absorbance at each concentration. The data were fitted to Equation Si to obtain estimates for Φ: […]
where Φ represents the quantum yield, A represents the absorbance, E represents the integrated fluorescence emission, η represents the refractive index of the solvent, and the ‘p’ and ‘r’ subscripts signify the probe or the reference compound, respectively.

The conditions of series [2]: in Acetonitrile; cited from earlier work.
Series [3] addresses T1, aggregated Aβ (1-42) peptides (Homo sapiens, UniProt P05067).
T1 construct: Synthetic Aβ (1-42) peptide was purchased from Biopeptide, Co LLC; purchased Biopeptide, Co LLC (San Diego, California); host or cells: chemical synthesis
The series is described as follows: Estimation of binding constant (KD) to aggregated Aβ (1-42) peptides. Particulars: aggregated Aβ(1-42) 5 μM, increasing concentration of probe, 5% DMSO in nanopure water. The protocol: (§1) Preparation of aggregated Aβ (1-42) peptides. Synthetic Aβ (1-42) peptide was purchased from Biopeptide, Co LLC (San Diego, California). Aggregated Aβ (1-42) was prepared as previously described.^26 Briefly, Aβ (1-42) was dissolved in 100% 1,1,1,3,3,3,-hexafluoro-2-propanol (HFIP) to a concentration of 1 mM and put on a shaker at room temperature (RT) for 24 hours. The solution was then diluted in cold nanopure water (2:1 H2O: HFIP). Aliquoted fractions were lyophilized for 3 days before dissolving in nanopure water to a concentration of 100 μM. Aggregated Aβ solutions were incubated and shaken at 37° C. for 3 days before use. The formation of soluble aggregates (67% fibrils as a mixture with 13% oligomers and 20% monomer) was confirmed using a standard thioflavin T (ThT) assay and by Sodium Dodecyl Sulphate-Polyacrylamide Gel Electrophoresis (SDS-PAGE) gel analysis (FIG. 11 and FIG. 12).
Estimation of Binding Constant (KD) to aggregated Aβ (1-42) peptides. Aggregated Aβ(1-42) at a final concentration of 5 μM (based on the molecular weight of monomer) was mixed with increasing concentration of each probe in 5% DMSO in nanopure water. KD's were determined as previously described.^21
(§2) Synthetic Aβ (1-42) peptide was purchased from Biopeptide, Co LLC (San Diego, California). Aggregated Aβ (1-42) was prepared as previously described.^32 Briefly, monomeric Aβ (1-42) was dissolved in 100% 1,1,1,3,3,3,-hexafluoro-2-propanol (HFIP) to a final concentration of 1 mM and dissolved on a shaker at RT for 24 hours. This solution was then diluted with cold nanopure water (2:1 H2O:HFIP) and aliquoted into fractions. These samples were then lyophilized for 3 days before dissolving in nanopure water to a final concentration of 100 μM. AD solutions were aggregated by incubating and shaking at 37° C. for 3 days before use. The formation of soluble aggregates was confirmed using a standard Thioflavin T (ThT) assay and by SDS-PAGE gel analysis.^1
(§3) Aggregated Aβ(1-42) or αS at a final concentration of 5 μM (based on the molecular weight of the monomer) was mixed with an increasing concentration of each probe in 5% DMSO in nanopure water. Kd's were calculated as previously described.^34 The measurements for each probe were repeated in technical triplicates and the averages are shown with standard deviations. Kd's for probes 1-3 with aggregated Aβ(1-42) have been reported previously.^31

For series [4], the target named is T1, aggregated Aβ (1-42) peptides. The series is described as follows: Fluorescence excitation/emission and fluorescence enhancement of probes bound versus unbound to aggregated Aβ (1-42) peptides. The series is classed as binding. The conditions noted are these: probe 4 μM; for Em (λmax) (with Aβ) / Ex (λmax) (with Aβ): aggregated Aβ (1-42) 5 μM; for Fold Increase with Aβ: fluorescence intensity with aggregated Aβ (1-42) 5 μM vs probe alone, at λmax of the amyloid-bound state. As to the method: as §1
(§4) Estimation of fluorescence enhancement of probes when bound versus unbound to aggregated Aβ (1-42) peptides. Aggregated Aβ (1-42) at a final concentration of 5 μM (based on the molecular weight of monomer) was mixed with each fluorescent probe at a final concentration of 4 μM in 5% DMSO in nanopure water. The solution (80 μL) was transferred to a black opaque 96 well plate and the fluorescence was read using a microplate reader. For all probes, the relative fluorescence enhancement of the bound versus unbound state was estimated by comparing the intensity at λmax of the amyloid-bound state.
as §2
(§5) Aggregated αS or Aβ(1-42) at a final concentration of 5 μM (based on the molecular weight of monomer) was mixed with each fluorescent probe at a final concentration of 4 μM in 5% DMSO in nanopure water. The solution (80 μL total volume) was transferred to a black opaque 96 well plate and the fluorescence excitation and emission were read using a microplate reader. For emission fluorescence enhancement, the relative fluorescence enhancement of the bound versus unbound state was estimated by comparing the fluorescence intensity at λmax of the amyloid-bound state.

Series [5] is described as follows: Fluorescence excitation and emission spectra of free (unbound) probes in aqueous solution. Format: physicochemical. The conditions noted are these: for Em (λmax) (Free) / Ex (λmax) (Free): free probe in aqueous solution; for fluorescence intensity of the free probe in aqueous solution compared to ARCAM (1): free probes in aqueous solution, FIG. 2. The protocol: as §4, §5

Series [6] addresses T2, aggregated αS (Homo sapiens, UniProt P37840).
T2 construct: made in house; host or cells: E. coli BL21 (plasmid pET5α aSynWT)
The series is described as follows: Estimation of binding constant (Kd) to aggregated αS. Particulars: probes of FIG. 14; aggregated αS 5 μM, increasing concentration of probe, 5% DMSO in nanopure water. The protocol: (§6) Expression and purification of recombinant α-synuclein was followed as reported previously.^32 Briefly, α-synuclein was purified from BL21 E. coli as described: A starter culture of transformed bacteria (pET5α aSynWT) (LB broth with ampicillin [final concentration: 100 μg/mL]) was incubated overnight. Following incubation, 25 mL of the started culture was added to a 500 mL mixture of LB broth and ampicillin. Protein expression was induced by addition of IPTG [0.119 g/500 mL] when an OD600 between 0.5-0.8 was achieved. After 4 h, flasks were centrifuged (5,000×g for 20 min) and the supernatant was removed. The pellets were then re-suspended in 20 mM Tris, 25 mM NaCl, 1 mM EDTA, pH 8.0, transferred into a flask, boiled for 1-2 minutes in a microwave, and boiled in a water bath (90° C.) for 30 minutes. Samples were then centrifuged (18,000×g for 30 min) and the supernatant was collected and filtered through a 0.2 μm filter. α-synuclein protein was further purified using 2×5 ml HiTrapQ HP anion exchange columns (GE, #17-1153-01) followed by Size Exclusion Column (Superdex 200, #28-9893-35). Pure α-synuclein determined by Coomassie and western blot were lyophilized and stored at −80° C. until use.
(§7) Aggregation of purified α-synuclein was followed as reported previously.^33 The lyophilized powder was dissolved to a final concentration of 100 μM in sodium phosphate buffer (50 mM, pH 7.4) with 0.1 mM EDTA and 0.02% sodium azide (w/v) and was aggregated at 37° C. with shaking at 500 rpm for 3 weeks. Fibrillization was confirmed by SDS-PAGE gel and standard ThT assay.
as §3

Series [7] deals with T2, aggregated αS. The series is described as follows: Fluorescence emission and fluorescence enhancement of probes bound versus unbound to aggregated αS. The series is classed as binding. Particulars: probes of FIG. 14. As to the method: as §6, §7, §5

As usually defined, the Kd is the free concentration of one partner at which half of the binding sites on the other are occupied at equilibrium, for simple one-to-one binding.

T1 sequence (P05067 672-713): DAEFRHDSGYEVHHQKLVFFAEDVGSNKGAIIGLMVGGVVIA

For the compound `Cc1ccc2c(c1)sc(-c1ccc(N(C)C)cc1)[n+]2C.[Cl-]` [ThT, Thioflavin T, reference compound], the QY in series [1] is 0.0006.

Regarding `CCN(CC)c1ccc2cc(-c3nc4ccccc4n3C)c(=O)oc2c1` [Coumarin 30], the “quantum yield of the reference standard” value in series [2] is recorded as 0.67.

In the case of `COCCOCCOCCNC(=O)C(C#N)=C(c1ccc2cc(N3CCCCC3)ccc2c1)C(F)(F)F` (mixture of isomers) [Compound 3, (Z)-2-cyano-4,4,4-trifluoro-N-(2-(2-(2-methoxyethoxy)ethoxy)ethyl)-3-(6-(piperidin-1-yl)naphthalen-2-yl)but-2-enamide], the Kd in series [3] is 3.7 ± 1.1 µM. For the same compound, in series [4] (5% DMSO in nanopure water), the “Em (λmax) (with Aβ)” value amounted to 514 ± 6 nm; the “Ex (λmax) (with Aβ)” value came to 410 ± 5 nm; the “Fold Increase with Aβ” value is 5.4 fold and 5.4 ± 0.9 fold. The compound also yielded a QY in series [1] of 0.0012 ± 0.0004. Besides, in series [5], the “Em (λmax) (Free)” value worked out at 547 ± 5 nm, the “Ex (λmax) (Free)” value was determined as 419 ± 4 nm and the “fluorescence intensity of the free probe in aqueous solution compared to ARCAM (1)” value was “decreased in fluorescence intensity by two orders of magnitude”.

Consider `CCCC1CCCCN1c1ccc2cc(/C=C(\C#N)C(=O)NCCOCCOCCOC)ccc2c1` (stereo not drawn) [Probe 4, (E)-2-cyano-N-(2-(2-(2-methoxyethoxy)ethoxy)ethyl)-3-(6-(2-propylpiperidin-1-yl)naphthalen-2-yl)acrylamide], for which the Kd in series [3] (probes of FIG. 14) is 4 ± 2.7 µM; on aggregated αS [6] it was 0.5 ± 0.1 µM. Also, the “Emmax (with Aβ)” value in series [4] (probes of FIG. 14, aggregated Aβ(1-42) 5 μM, 5% DMSO in nanopure water) came to 558 nm. Besides, in series [4] (probes of FIG. 14, fold increase of fluorescence, bound vs unbound, aggregated Aβ(1-42) 5 μM), the “FI with Aβ” value is 1.8 ± 0.2. Further, the “Emmax (with αS)” value on aggregated αS [7] (aggregated αS 5 μM, probe 4 μM, 5% DMSO in nanopure water) is recorded as 539 nm. For the same compound, the “FI with αS” value at aggregated αS [7] (fold increase of fluorescence, bound vs unbound, aggregated αS 5 μM, probe 4 μM) was found to be 5.2 ± 0.8. The “FI αS/Aβ” value at aggregated αS [7] (selectivity of fluorescence response to αS fibrils over Aβ fibrils) worked out at 2.9. In addition, the “Quantum Yield (Φ)” value in series [1] (probes of FIG. 14) was determined as 0.0062. In series [5] (probes of FIG. 14, free), the “Emmax (Free)” value stood at 578 nm.

For `COCCOCCOCCNC(=O)/C(C#N)=C(\C)c1ccc2cc(N3CCCCC3)ccc2c1` [Compound 2, (E)-2-cyano-N-(2-(2-(2-methoxyethoxy)ethoxy)ethyl)-3-(6-(piperidin-1-yl)naphthalen-2-yl)but-2-enamide], in series [3], the Kd was 5 ± 1.7 µM. In series [4] (5% DMSO in nanopure water), the “Em (λmax) (with Aβ)” value worked out at 547 ± 4 nm; the “Ex (λmax) (with Aβ)” value is listed as 364 ± 6 nm; the “Fold Increase with Aβ” value was 3.5 fold and 3.5 ± 0.9 fold. In series [1], the QY is given as 0.0016 ± 0.0005. In addition, in series [5], the “Em (λmax) (Free)” value is 601 ± 2 nm, the “Ex (λmax) (Free)” value was 372 ± 14 nm and the “fluorescence intensity of the free probe in aqueous solution compared to ARCAM (1)” value was “decreased in fluorescence intensity by two orders of magnitude”.
